Like-named read-outs stand apart in the source and are kept apart here.
Tests used:
5-HT1A receptors = biological target: T1, 5-HT1A receptors (Rattus norvegicus, UniProt P19327); test: Inhibition of serotonergic syndrome (forepaw treading) induced by 8-OH-DPAT in rats (post-synaptic antagonism); assay type: in vivo; conditions: rat, 10 mg/kg p.o.
T1 construct: from tissue; host or cells: living male Sprague-Dawley rats (whole animal, behavioural read-out)
T1 sequence (P19327 1-422): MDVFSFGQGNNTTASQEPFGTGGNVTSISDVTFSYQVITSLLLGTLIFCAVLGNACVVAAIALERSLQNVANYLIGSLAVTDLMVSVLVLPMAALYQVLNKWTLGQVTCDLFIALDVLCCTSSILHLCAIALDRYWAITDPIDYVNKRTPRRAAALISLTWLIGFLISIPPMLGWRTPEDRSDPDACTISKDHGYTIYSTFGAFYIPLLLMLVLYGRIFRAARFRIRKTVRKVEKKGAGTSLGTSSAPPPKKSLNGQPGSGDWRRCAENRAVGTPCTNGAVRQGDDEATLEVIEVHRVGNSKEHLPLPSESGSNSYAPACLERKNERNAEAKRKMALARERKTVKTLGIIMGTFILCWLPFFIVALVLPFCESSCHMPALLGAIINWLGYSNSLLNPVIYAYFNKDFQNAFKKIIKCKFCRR
Procedure: The inhibitory effect of 5-HT1A-receptor antagonists on stereotyped forepaw treading induced in rats by subcutaneous injection of 8-OH-DPAT was evaluated by the method of Tricklebank (Tricklebank et al., Eur. J. Pharmacol., 117: 15, 1985) with minor modifications as described below.
Male Sprague-Dawley rats [Crl: CD® (SD) IGS BR] weighing 150-175 g from Charles River Italia were used. The animals were housed with free access to food and water and maintained on a forced 12-hour-light/12-hour-dark cycle at 22-24° C. of temperature. On the day of the experiment, the rats were placed singly in clear plastic containers, 10-15 minutes before oral administration of the vehicle or compounds to be tested. For evaluation of antagonistic activity, the compounds were administered 1 and 4 hours before induction of stereotypy by 8-OH-DPAT (1 mg/kg subcutaneously). Observation sessions lasted 30 seconds and began 3 minutes after 8-OH-DPAT treatment and were repeated every 3 minutes over a period of 15 minutes.
The appearance of the symptoms induced by postsynaptic stimulation of 5-HT1A receptors was noted, and the intensity was scored using an intensity scale in which: 0=absent, 1=equivocal, 2=present and 3=intense. Behavioural scores for treated rats were accumulated throughout the observation time (5 observation periods) and expressed as mean values of 4 rats/dose. Change in mean values of treated animals in comparison with control (vehicle) group, expressed as per-cent inhibition, was used to quantify the antagonistic activity.
In order to quantitate the potency of the compound of Example 24 in inhibiting the stereotypy (forepaw treading) induced by 8-OH-DPAT, an ED50 value (dose inhibiting by 50% the forepaw treading) was evaluated by means of linear regression using the least square method.

[1] = biological target: T2, human 5HT1A-serotonergic receptor (Homo sapiens, UniProt P08908); test: Radioligand binding to recombinant 5-HT1A receptor ([3H]8-OH-DPAT, HeLa cell membranes); conditions: 1 nM [3H]8-OH-DPAT; Ki from IC50 by the Cheng equation; read-out: Ki (nM), binding affinity for 5HT1A receptor
T2 construct: expressed in transfected cells; host or cells: HeLa (human), stably transfected; membranes
T2 sequence (P08908 1-422): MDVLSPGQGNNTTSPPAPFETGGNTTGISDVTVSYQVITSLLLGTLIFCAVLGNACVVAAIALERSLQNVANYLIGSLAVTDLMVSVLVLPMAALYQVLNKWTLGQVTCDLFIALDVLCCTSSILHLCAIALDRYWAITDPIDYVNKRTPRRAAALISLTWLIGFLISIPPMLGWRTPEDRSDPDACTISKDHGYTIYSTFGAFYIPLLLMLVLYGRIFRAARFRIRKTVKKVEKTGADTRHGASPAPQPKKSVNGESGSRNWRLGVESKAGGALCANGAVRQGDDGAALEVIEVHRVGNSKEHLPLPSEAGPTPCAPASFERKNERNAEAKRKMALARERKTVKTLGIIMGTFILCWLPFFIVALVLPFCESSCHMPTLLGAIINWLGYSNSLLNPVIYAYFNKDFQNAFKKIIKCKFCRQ
Procedure: Genomic clone G-21 encoding the human 5HT1A-serotonergic receptor was stably transfected in a human cell line (HeLa). HeLa cells were grown as monolayers in Dulbecco's modified Eagle medium (DMEM), containing 10% fetal bovine serum and gentamycin (100 μg/ml) at 37° C. in a humidified atmosphere of 5% CO2 and air. The cells were detached from the growth flask at 95% confluence by a cell scraper and were lysed in cold 5 mM Tris and 5 mM EDTA buffer (pH 7.4). The homogenates were centrifuged at 40000×g×20 minutes and the pellets were resuspended in a small volume of cold 5 mM Tris and 5 mM EDTA buffer (pH 7.4) and immediately frozen and stored at −70° C. until use. On the day of experiment, the cell membranes were resuspended in incubation buffer: 50 mM Tris (pH 7.4), 2.5 mM MgCl2, 10 μM pargyline (Fargin et al., Nature 335, 358-360, 1988). The membranes were incubated in a final volume of 0.32 ml for 30 minutes at 30° C. with 1 nM [^3H]8-OH-DPAT, in the absence or presence of the test compounds. Non-specific binding was determined in the presence of 10 μM 5-HT. Incubation was stopped by addition of cold Tris buffer and rapid filtration through UniFilter GF/C plate.
The affinity of the tested compounds was evaluated as inhibition of specific binding of the radioligand to 5-HT1A receptor (IC50) by using the non-linear curve-fitting program Allfit (De Lean et al., Am. J. Physiol. 235, E97-E102 (1978)). The IC50 value was converted to an affinity constant (Ki) by the equation of Cheng et al., Biochem. Pharmacol. 22, 3099-3108 (1973).

[2] = system: rhythmic bladder-voiding contractions; test: Rhythmic bladder-voiding contractions induced by bladder filling in anaesthetised rats; assay type: in vivo, rat; conditions: intravenous administration
Procedure: Female Sprague-Dawley rats weighing 225-275 g (Crl: CD® (SD) IGS BR, Charles River Italia) were used. The animals were housed with free access to food and water and maintained on a forced 12-hour alternating light-dark cycle at 22-24° C. for at least one week, except during the experiment. The activity on rhythmic bladder voiding contractions was evaluated according to the method of Dray (Dray J., Pharmacol. Methods, 13:157, 1985), with some modifications as in Guarneri (Guarneri, Pharmacol. Res. 27:173, 1993). Briefly, the rats were anaesthetised by subcutaneous injection of 1.25 g/kg (5 ml/kg) urethane, after which the urinary bladder was catheterised via the urethra using PE 50 polyethylene tubing filled with physiological saline. The catheter was tied in place with a ligature around the external urethral orifice and was connected to conventional pressure transducers (Statham P23 ID/P23 XL). […] The bladder was then filled via the recording catheter by incremental volumes of warm (37° C.) saline until reflex bladder-voiding contractions occurred (usually 0.8-1.5 ml). For intravenous injection of bioactive compounds, PE 50 polyethylene tubing filled with physiological saline was inserted into the jugular vein.
From the cystometrogram, the number of contractions recorded 15 minutes before (basal values) and after treatment, as well as the mean amplitude of these contractions (mean height of the peaks in mmHg), was evaluated.
Since most compounds produced an effect that was relatively rapid in onset and led to a complete cessation of bladder contractions, bioactivity was conveniently estimated by measuring the duration of bladder quiescence (i.e., the time during which no contractions occurred). The number of tested animals showing a reduction in the number of contractions higher than 30% of that observed in the basal period was recorded too.
The extrapolated doses which induced a reduction in the number of contractions greater than 30% in 50% of the treated rats (ED50) were also evaluated by the method of Bliss (Bliss C. I., Quart J. Pharm. Pharmacol. 11, 192-216, 1938).

[3] = 1 h before 8-OH-DPAT 1 mg/kg s.c., read-out: % Inhibition of forepaw treading, 1 h
[4] = 4 h before 8-OH-DPAT 1 mg/kg s.c., read-out: % Inhibition of forepaw treading, 4 h

Compound | inhibition at 10 mg/kg (5-HT1A receptors; [3]) [%] | inhibition at 10 mg/kg (5-HT1A receptors; [4]) [%] | Ki [1] [nM] | ED50 ([2]; Rattus norvegicus, read-out: ED50 (frequency) (extrapolated dose inducing a reduction of the number of contractions >30% in 50% of treated rats)) [mg/kg] | ED10 min (extrapolated dose inducing 10 minutes of disappearance of the contractions) [2] [mg/kg]
CON[C@H](C1CCCCC1)[C@H](CCN1CCN(c2ccccc2OC)CC1)c1ccccc1F (racemic) [Example 4b, (RS,RS)-N-{1-Cyclohexyl-2-(2-fluorophenyl)-4-[4-(2-methoxyphenyl)piperazin-1-yl]butyl}-O-methylhydroxylamine] | 71 | 67 | – | – | –
CONC(C1CCCCC1)C(CCN1CCN(c2ccccc2OC)CC1)c1ccccc1F (mixture of isomers) [Example 4, N-{1-Cyclohexyl-2-(2-fluorophenyl)-4-[4-(2-methoxyphenyl)piperazin-1-yl]butyl}-O-methylhydroxylamine] | 86 | 68 | 0.88 | – | –
COc1ccccc1N1CCN(CC[C@@H](c2ccccc2F)[C@H](NC(=O)N(C)C)C2CCCCC2)CC1 (racemic) [Example 21, 3-{(RS,SR)-1-Cyclohexyl-2-(2-fluorophenyl)-4-[4-(2-methoxyphenyl)-piperazin-1-yl]butyl}-1,1-dimethylurea] | 94 | 65 | 2.1 | – | –
COc1ccccc1N1CCN(CCC(C(=NO)C2CCCCC2)c2ccccc2F)CC1 (mixture of isomers) [Example 1, 1-Cyclohexyl-2-(2-fluorophenyl)-4-[4-(2-methoxyphenyl)-piperazin-1-yl]butan-1-one oxime] | 71 | – | 0.16 | – | –
Cc1c(-c2ccccc2)oc2c(C(=O)OCCN3CCCCC3)cccc2c1=O [Flavoxate, flavoxate] | – | – | – | 2.65 | >10
COc1ccccc1N1CCN(CC[C@@H](c2ccccc2F)[C@@H](C2CCCCC2)N(C)C)CC1 (racemic) [Example 11, {(RS,SR)-1-Cyclohexyl-2-(2-fluorophenyl)-4-[4-(2-methoxyphenyl)-piperazin-1-yl]butyl}dimethylamine] | 56 | 56 | 1 | – | –
CNC(C1CCCCC1)C(CCN1CCN(c2ccccc2OC)CC1)c1ccccc1F (centres unmarked) [Example 10b] | – | – | 1.41 | – | –
COc1ccccc1N1CCN(CC[C@@H](c2ccccc2F)[C@H](N)C2CCCCC2)CC1 (racemic) [Example 5a, (RS,SR)-1-Cyclohexyl-2-(2-fluorophenyl)-4-[4-(2-methoxyphenyl)-piperazin-1-yl]butylamine] | – | – | 0.48 | – | –
COc1ccccc1N1CCN(CC[C@@H](c2ccccc2F)[C@H](NC(N)=O)C2CCCCC2)CC1 (racemic) [Example 18, {(RS,SR)-1-Cyclohexyl-2-(2-fluorophenyl)-4-[4-(2-methoxyphenyl)-piperazin-1-yl]butyl}urea] | – | – | 1.84 | – | –
COc1ccccc1N1CCN(CCC(c2ccccc2F)C(NC(=O)N2CCOCC2)C2CCCCC2)CC1 (stereo not drawn) [Example 20, 1-{(RS,SR)-1-Cyclohexyl-2-(2-fluorophenyl)-4-[4-(2-methoxyphenyl)-piperazin-1-yl]butyl}morpholine-4-carboxamide] | – | – | 2.9 | – | –
CNC(=S)N[C@H](C1CCCCC1)[C@@H](CCN1CCN(c2ccccc2OC)CC1)c1ccccc1F (racemic) [Example 23, 1-{(RS,SR)-1-Cyclohexyl-2-(2-fluorophenyl)-4-[4-(2-methoxyphenyl)-piperazin-1-yl]butyl}-3-methylthiourea] | – | – | 0.58 | – | –

Reference: patent US20070270436A1, “NOVEL AMINO- AND IMINO-ALKYLPIPERAZINES” (Recordati Ireland Limited, priority 2006, published 2007)
